The values that follow come from ChEMBL document CHEMBL5252585, “Structure optimization and discovery of novel compound for the treatment of insertion mutations within exon 20 of EGFR and HER2” (Bioorg Med Chem, 2023).

In general, inhibition refers to the share of the control response that was lost under treatment. Usually Cmax stands for the peak of the concentration-time curve. One may read the bioavailability as dose-corrected exposure relative to a reference, in per cent. A higher bioavailability goes with good availability. The AUC(0-t) is exposure summed from dosing to a finite time, without extrapolation to infinity. The low end stands for low exposure, the high end for high exposure. One may read the IC50 as the midpoint of a concentration-inhibition curve. A higher IC50 goes with a need for much substance. As a reminder, the Tmax is the time at which the peak concentration occurs. As usually defined, the clearance is a measure of how efficiently the substance is removed, as volume per time. Low readings indicate a low capacity for elimination, high ones a high capacity for elimination.

For series [1], the target named is T1, Ephrin type-A receptor 3 (Homo sapiens) (UniProt P29320).
T1 sequence (whole entry): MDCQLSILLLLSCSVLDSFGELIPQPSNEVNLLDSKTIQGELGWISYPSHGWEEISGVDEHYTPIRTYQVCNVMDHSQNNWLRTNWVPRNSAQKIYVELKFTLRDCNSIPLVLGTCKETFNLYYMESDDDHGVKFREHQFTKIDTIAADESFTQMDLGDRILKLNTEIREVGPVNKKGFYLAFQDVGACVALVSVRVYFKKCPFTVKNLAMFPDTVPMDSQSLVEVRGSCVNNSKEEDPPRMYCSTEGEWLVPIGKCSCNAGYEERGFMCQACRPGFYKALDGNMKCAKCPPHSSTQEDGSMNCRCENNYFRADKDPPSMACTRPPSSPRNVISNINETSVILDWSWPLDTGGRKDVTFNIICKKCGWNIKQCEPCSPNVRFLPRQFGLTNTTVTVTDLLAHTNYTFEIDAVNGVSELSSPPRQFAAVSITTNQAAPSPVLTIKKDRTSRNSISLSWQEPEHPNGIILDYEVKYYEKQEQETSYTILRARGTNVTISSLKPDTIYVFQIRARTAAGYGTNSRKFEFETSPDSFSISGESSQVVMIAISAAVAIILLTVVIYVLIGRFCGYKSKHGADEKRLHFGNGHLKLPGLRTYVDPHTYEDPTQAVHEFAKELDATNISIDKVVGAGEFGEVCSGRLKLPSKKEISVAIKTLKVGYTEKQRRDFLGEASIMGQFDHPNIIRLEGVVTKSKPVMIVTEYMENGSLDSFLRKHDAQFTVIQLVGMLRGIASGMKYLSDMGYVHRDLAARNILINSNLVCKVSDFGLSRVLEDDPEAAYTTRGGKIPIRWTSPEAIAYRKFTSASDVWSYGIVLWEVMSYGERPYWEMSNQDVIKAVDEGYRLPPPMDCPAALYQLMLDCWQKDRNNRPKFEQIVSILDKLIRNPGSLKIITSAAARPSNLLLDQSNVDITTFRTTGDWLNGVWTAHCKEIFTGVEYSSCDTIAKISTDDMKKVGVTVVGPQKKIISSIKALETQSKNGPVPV
Put plainly: Inhibition of EPHA3 (unknown origin) at 500 nM relative to control.

Series [2] is described as follows: Cmax in Sprague-Dawley rat at 10 mg/kg, iv measured upto 8 hrs by LC-MS/MS analysis. In kind it is ADME, organism-based. Details: dose 10 mg/kg, time < 8 hrs, route iv. To be noted: in vivo.
Series [3] is described as follows: Oral bioavailability in Sprague-Dawley rat at 10 mg/kg measured upto 8 hrs by LC-MS/MS analysis. It is filed as ADME, organism-based. Particulars: in vivo.
Series [4] in a line: AUC(0 to t) in Sprague-Dawley rat at 10 mg/kg, iv measured upto 8 hrs by LC-MS/MS analysis. It is filed as ADME, organism-based. Details: dose 10 mg/kg, time < 8 hrs, route iv. To be noted: in vivo.
The subject of series [5] is BaF3. Put plainly: Antitumor activity against mouse BaF3 cells implanted in BALB/c mouse harboring EGFR D770-N771 ins NPG mutant assessed as tumor growth inhibition at 10 mg/kg, po administered once daily for 13 to 14 days. In kind it is functional. Particulars: time 13-14 day, read-out: TGI.
The nature of series [6]: Inhibition of HER2-A775-G776 ins YVMA mutant (unknown origin). Further details: species or system Homo sapiens.
The target in series [7] is Receptor tyrosine-protein kinase erbB-2 (Homo sapiens, UniProt P04626). Put plainly: Inhibition of HER2 (unknown origin).
Sequence of Receptor tyrosine-protein kinase erbB-2 (P04626 whole entry): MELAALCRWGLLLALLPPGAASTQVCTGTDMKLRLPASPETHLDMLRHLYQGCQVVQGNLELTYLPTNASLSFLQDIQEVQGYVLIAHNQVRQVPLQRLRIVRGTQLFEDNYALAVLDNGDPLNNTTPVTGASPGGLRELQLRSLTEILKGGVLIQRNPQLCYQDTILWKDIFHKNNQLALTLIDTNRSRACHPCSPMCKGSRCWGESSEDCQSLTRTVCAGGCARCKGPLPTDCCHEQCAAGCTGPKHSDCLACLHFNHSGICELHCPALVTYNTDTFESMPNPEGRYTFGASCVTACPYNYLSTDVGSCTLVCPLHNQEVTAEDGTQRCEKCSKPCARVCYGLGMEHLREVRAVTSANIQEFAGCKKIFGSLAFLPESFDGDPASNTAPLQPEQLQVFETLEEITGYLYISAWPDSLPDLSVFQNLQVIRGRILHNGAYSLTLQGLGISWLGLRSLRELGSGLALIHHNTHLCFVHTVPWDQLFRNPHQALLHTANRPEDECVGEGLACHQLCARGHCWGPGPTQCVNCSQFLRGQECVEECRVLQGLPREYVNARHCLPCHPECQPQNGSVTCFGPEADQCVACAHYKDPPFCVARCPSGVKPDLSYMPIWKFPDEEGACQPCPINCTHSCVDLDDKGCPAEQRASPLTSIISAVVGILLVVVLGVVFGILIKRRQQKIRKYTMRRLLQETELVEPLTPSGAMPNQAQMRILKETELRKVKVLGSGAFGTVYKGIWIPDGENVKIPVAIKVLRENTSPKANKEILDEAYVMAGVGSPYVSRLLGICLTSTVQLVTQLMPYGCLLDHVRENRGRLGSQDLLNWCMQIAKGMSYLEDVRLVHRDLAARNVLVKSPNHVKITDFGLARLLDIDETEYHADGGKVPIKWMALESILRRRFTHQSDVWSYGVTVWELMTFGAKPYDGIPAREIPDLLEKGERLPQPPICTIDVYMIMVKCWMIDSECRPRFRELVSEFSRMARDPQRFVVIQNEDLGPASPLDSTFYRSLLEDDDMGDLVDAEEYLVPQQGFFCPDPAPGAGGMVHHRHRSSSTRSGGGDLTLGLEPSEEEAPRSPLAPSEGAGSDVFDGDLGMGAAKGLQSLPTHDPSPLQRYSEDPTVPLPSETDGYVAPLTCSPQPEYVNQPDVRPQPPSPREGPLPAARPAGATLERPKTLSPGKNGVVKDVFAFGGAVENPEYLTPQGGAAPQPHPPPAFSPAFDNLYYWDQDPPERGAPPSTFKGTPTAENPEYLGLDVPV
Series [8] relates to BaF3. Put plainly: Inhibition of HER2-A775-G776 ins YVMA mutant in mouse BaF3 cells assessed as reduction in HER2 phosphorylation incubated for 24 hrs by Western blot analysis. It is filed as cell-based. Particulars: dose 1-100 nM. A general note: A western blot detects proteins with antibodies after separation by electrophoresis.
Series [9] deals with Protein-tyrosine kinase 6 (Homo sapiens) (UniProt Q13882). Put plainly: Inhibition of BRK (unknown origin) at 500 nM relative to control.
Sequence of Protein-tyrosine kinase 6 (Homo sapiens) (Q13882 whole entry, looked up): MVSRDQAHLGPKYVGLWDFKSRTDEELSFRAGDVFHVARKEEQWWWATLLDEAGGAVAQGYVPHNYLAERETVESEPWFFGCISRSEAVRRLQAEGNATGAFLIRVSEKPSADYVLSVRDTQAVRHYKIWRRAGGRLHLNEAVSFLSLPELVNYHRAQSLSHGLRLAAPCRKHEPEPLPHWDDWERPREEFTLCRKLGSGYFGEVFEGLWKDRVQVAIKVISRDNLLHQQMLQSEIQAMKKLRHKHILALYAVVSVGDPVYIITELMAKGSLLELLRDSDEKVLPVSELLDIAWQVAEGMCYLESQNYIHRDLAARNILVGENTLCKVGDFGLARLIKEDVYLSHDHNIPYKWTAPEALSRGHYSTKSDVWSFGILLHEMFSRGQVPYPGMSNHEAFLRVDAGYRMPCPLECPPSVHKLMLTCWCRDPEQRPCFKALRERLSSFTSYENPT
In series [10] the test system is BaF3. Put plainly: Inhibition of HER2-A775-G776 ins YVMA mutant in mouse BaF3 cells assessed as reduction in HER2 phosphorylation at less than 1 nM incubated for 24 hrs by Western blot analysis. In kind it is cell-based.
The target in series [11] is T2, Tyrosine-protein kinase TXK (Homo sapiens) (UniProt P42681).
T2 sequence (whole entry): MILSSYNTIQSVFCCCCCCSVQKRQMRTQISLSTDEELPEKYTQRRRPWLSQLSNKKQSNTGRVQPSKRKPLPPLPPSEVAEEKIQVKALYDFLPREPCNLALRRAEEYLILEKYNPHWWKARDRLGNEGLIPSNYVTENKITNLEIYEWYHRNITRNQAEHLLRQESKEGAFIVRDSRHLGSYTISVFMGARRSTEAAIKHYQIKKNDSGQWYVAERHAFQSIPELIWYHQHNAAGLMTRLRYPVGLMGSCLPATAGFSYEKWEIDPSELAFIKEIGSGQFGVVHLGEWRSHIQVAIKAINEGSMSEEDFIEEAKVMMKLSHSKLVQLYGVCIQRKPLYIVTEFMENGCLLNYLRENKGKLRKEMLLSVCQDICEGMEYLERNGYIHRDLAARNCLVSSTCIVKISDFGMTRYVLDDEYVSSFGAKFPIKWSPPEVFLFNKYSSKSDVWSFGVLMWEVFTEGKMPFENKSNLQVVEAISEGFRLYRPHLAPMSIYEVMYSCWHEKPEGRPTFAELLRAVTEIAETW
Put plainly: Inhibition of TXK (unknown origin) at 500 nM relative to control.

The subject of series [12] is BaF3. In words: Antitumor activity against mouse BaF3 cells implanted in BALB/c mouse harboring HER2-A775-G776 ins YVMA mutant assessed as tumor growth inhibition at 20 mg/kg, po administered once daily for 13 to 14 days. It is filed as functional. Particulars: time 13-14 day, read-out: TGI.
Series [13] in a line: Tmax in Sprague-Dawley rat at 10 mg/kg, po measured upto 8 hrs by LC-MS/MS analysis. It is filed as ADME, organism-based. Particulars: in vivo.
For series [14], the system named is BaF3. In words: Antiproliferative activity against mouse BAF3 cells harboring HER2-P780-Y781 ins GSP mutant after 72 hrs by celltiter-Glo luminescence assay. It is filed as functional, cell-based. To be noted: BaF3, 72 h.
For series [15], the system named is BaF3. In words: Antiproliferative activity against mouse BAF3 cells harboring HER2-A775-G776 ins YVMA mutant after 72 hrs by celltiter-Glo luminescence assay. It is filed as functional, cell-based. To be noted: BaF3, 72 h.
A short description of series [16]: Inhibition of EGFR L858R/T790M double mutant (unknown origin). Further details: species or system Homo sapiens.
Series [17] is described as follows: Clearance in Sprague-Dawley rat at 10 mg/kg, iv measured upto 8 hrs by LC-MS/MS analysis. To be noted: in vivo. It is filed as ADME, organism-based.
Series [18] addresses Voltage-gated inwardly rectifying potassium channel KCNH2 (Homo sapiens, UniProt Q12809). In words: Binding affinity to human ERG. In kind it is toxicity.

The source made the active and inactive calls. No cut-off for these calls is given here. A value given as a limit tells only on which side of the number the result lay.

Sequence of Voltage-gated inwardly rectifying potassium channel KCNH2 (Q12809 whole entry): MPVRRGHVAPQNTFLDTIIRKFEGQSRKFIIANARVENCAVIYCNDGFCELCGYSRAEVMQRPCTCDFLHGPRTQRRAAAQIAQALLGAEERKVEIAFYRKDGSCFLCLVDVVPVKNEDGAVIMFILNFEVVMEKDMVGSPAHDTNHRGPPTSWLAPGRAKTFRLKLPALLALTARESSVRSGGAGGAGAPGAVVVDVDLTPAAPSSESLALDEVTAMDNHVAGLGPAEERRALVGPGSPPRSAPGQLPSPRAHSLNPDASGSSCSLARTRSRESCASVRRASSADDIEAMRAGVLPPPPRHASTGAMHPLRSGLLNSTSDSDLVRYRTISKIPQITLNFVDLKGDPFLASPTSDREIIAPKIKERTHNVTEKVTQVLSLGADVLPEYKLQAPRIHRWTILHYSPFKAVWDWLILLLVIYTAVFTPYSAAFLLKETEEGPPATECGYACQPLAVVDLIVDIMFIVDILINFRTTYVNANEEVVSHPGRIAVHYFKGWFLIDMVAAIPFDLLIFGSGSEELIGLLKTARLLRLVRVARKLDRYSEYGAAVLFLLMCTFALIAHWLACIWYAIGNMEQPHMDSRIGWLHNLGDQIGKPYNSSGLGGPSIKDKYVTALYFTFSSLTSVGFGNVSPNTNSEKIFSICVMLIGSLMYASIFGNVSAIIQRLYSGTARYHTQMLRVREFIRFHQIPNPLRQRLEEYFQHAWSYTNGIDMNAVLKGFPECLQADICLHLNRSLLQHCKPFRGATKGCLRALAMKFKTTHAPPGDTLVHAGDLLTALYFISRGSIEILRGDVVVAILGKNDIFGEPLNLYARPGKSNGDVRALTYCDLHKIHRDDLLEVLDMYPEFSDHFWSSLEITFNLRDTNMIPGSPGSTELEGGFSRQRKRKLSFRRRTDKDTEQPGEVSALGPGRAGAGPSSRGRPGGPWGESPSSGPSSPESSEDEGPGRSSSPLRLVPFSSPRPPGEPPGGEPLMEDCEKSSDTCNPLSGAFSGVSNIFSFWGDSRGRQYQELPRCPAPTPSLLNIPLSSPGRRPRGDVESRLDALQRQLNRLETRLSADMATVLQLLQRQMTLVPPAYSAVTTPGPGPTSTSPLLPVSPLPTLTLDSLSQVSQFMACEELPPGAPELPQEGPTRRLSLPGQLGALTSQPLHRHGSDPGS

Take `C=CC(=O)N1CCC(Oc2cc3c(Nc4cccc(Cl)c4F)ncnc3cc2O[C@H]2CCOC2)CC1`: the inhibition in series [1] was greater than 20%; in the series with BaF3 [8] it was “Dose-Dependent Effect”; in series [9] it was greater than 20%; in series [11], greater than 20%. Besides, the Cmax in series [2] is 8270 ng/mL. In [3], the bioavailability amounted to 68%. Besides, the AUC(0-t) at 8 h in series [4] amounted to 13900 ng·h/mL. Besides, the inhibition in vivo at 10 mg/kg in the series on BaF3 [5] came to 67%. Further, the IC50 was 0.92 nM in series [6]; 1.42 nM in [7]; 0.62 nM in the series on BaF3 [14]; 0.95 nM in the series on BaF3 [15]; 1.07 nM in series [16]; greater than 15000 nM in series [18]. For the same molecule, the inhibition result in the series with BaF3 [10] was “Active”. The inhibition in vivo at 20 mg/kg with BaF3 [12] was 90%. Further, the Tmax in series [13] amounted to 1.33 h. Further, the clearance in series [17] is 2.32 mL/min.
